ChEMBL document CHEMBL4364346, “Structure optimization of a new class of PPARγ antagonists” (Bioorg Med Chem, 2019)
Activity calls are given as the source filed them. The rule behind the calls is not given here.

How the values were obtained:
[1] = target: T1, Retinoic acid receptor alpha (Homo sapiens) (UniProt P10276); test: Agonist activity at recombinant human pFA-CMV fused RARalpha LBD transfected in HEK293T cells assessed as RARalpha activation at 1 uM incubated for 12 to 14 hrs by dual glo luciferase reporter gene assay; type: cell-based
T1 sequence (whole entry): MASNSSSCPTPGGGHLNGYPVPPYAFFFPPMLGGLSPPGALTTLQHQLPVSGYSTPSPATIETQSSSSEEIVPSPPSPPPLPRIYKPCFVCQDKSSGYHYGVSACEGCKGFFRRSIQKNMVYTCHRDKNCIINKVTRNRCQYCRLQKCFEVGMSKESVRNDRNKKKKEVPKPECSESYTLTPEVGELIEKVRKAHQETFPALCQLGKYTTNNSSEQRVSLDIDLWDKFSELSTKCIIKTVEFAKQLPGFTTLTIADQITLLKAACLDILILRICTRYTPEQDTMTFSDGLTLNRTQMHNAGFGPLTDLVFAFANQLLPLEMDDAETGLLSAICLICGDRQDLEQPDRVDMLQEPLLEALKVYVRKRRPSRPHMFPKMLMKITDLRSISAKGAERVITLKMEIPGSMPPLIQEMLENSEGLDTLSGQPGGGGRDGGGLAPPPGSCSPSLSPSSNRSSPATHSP

[2] = target: T2, Bile acid receptor (Homo sapiens) (UniProt Q96RI1); test: Agonist activity at recombinant human pFA-CMV fused FXR LBD transfected in HEK293T cells assessed as FXR activation at 1 uM incubated for 12 to 14 hrs by dual glo luciferase reporter gene assay; type: cell-based
T2 sequence (whole entry): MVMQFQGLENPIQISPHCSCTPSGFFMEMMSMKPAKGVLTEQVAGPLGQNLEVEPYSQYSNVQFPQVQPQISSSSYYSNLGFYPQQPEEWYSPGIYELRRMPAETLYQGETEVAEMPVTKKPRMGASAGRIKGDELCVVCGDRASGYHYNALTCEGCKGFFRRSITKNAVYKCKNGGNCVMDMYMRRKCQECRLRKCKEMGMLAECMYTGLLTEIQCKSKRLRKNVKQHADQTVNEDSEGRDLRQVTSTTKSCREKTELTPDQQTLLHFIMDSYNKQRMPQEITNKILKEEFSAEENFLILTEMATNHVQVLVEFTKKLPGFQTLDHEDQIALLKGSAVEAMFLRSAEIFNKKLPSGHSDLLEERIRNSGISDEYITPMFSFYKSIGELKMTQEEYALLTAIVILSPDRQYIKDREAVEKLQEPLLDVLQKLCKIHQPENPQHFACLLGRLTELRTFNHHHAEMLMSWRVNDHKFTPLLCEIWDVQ

[3] = Plasma concentration in Swiss CD1 mouse at 1 mg/kg, ip measured upto 3 hrs by LC-MS analysis; type: ADME, organism-based
[4] = target: T3, Nuclear receptor subfamily 1 group I member 3 (Homo sapiens, UniProt Q14994); test: Antagonist activity at recombinant human pFA-CMV fused CAR LBD transfected in HEK293T cells assessed as reduction in CITCO-induced CAR activation at 1 uM incubated for 12 to 14 hrs by dual glo luciferase reporter gene assay; type: cell-based
T3 sequence (Q14994 whole entry): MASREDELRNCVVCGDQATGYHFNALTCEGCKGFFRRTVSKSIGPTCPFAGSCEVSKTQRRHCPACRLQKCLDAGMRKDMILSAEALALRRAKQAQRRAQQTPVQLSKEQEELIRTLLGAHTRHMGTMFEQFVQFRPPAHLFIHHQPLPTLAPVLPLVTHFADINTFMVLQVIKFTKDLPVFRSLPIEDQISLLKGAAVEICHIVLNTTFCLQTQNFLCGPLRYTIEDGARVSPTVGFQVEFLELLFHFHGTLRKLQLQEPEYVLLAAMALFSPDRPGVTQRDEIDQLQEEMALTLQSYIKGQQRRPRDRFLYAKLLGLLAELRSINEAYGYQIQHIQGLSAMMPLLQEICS

[5] = target: T3, Nuclear receptor subfamily 1 group I member 3; test: Agonist activity at recombinant human pFA-CMV fused CAR LBD transfected in HEK293T cells assessed as CAR activation at 1 uM incubated for 12 to 14 hrs by dual glo luciferase reporter gene assay; type: cell-based
[6] = target: T4, Peroxisome proliferator-activated receptor alpha (Homo sapiens) (UniProt Q07869); test: Antagonist activity at recombinant human pFA-CMV fused PPARalpha LBD transfected in HEK293T cells assessed as reduction in GW7647-induced PPARalpha activation at 1 uM incubated for 12 to 14 hrs by dual glo luciferase reporter gene assay; type: cell-based
T4 sequence (whole entry): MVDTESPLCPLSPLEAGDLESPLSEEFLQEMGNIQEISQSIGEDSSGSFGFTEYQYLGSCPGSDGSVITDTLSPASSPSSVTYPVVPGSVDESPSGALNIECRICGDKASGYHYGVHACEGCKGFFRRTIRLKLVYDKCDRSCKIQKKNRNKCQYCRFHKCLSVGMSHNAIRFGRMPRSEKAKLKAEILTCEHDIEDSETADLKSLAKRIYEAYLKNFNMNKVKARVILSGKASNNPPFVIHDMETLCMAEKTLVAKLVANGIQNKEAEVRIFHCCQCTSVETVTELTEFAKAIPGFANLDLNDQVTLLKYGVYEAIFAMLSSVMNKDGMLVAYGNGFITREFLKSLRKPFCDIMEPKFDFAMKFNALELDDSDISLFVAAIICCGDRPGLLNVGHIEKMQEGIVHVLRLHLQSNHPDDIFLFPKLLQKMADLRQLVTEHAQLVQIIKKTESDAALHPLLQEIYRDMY

[7] = Cmax in Swiss CD1 mouse at 10 mg/kg, ip measured upto 7 hrs by LC-MS analysis; type: ADME, organism-based; design: dose 10 mg/kg, route intraperitoneal; conditions: in vivo
[8] = target: T1, Retinoic acid receptor alpha (Homo sapiens); test: Antagonist activity at recombinant human pFA-CMV fused RARalpha LBD transfected in HEK293T cells assessed as reduction in tretinoin-induced RARalpha activation at 1 uM incubated for 12 to 14 hrs by dual glo luciferase reporter gene assay; type: cell-based
[9] = target: Oxysterols receptor LXR-alpha (Homo sapiens) (UniProt Q13133); test: Agonist activity at recombinant human pFA-CMV fused LXRalpha LBD transfected in HEK293T cells assessed as LXRalpha activation at 1 uM incubated for 12 to 14 hrs by dual glo luciferase reporter gene assay
Chain of Oxysterols receptor LXR-alpha (Homo sapiens) (Q13133 whole entry, looked up, the tested form may be a part): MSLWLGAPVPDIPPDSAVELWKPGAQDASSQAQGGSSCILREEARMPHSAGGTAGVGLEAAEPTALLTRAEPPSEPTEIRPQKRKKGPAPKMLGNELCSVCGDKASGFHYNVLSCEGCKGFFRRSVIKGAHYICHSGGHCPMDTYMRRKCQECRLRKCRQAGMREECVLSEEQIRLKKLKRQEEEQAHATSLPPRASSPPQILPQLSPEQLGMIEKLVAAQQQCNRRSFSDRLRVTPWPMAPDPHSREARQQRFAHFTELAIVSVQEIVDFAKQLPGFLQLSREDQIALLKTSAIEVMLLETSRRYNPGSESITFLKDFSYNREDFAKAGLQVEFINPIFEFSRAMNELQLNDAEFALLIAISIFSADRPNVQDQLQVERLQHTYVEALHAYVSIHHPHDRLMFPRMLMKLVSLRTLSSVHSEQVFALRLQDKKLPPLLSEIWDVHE

| Structure (SMILES) | Activity [1] | Activity [2] | concentration at 3 h [3] | Activity [4] | Activity [5] | Activity [6] | Cmax [7] | Activity [8] | Activity [9] |
| --- | --- | --- | --- | --- | --- | --- | --- | --- | --- |
| CCC/C(=C\c1cc(OCc2ccc3nc(C(F)(F)F)cc(OC)c3c2)ccc1OCCN1CCN(C)CC1)C(=O)O | inactive | inactive | 9.5 nM | Not Active | Not Active | inactive | 446 nM | inactive | inactive |
| CCC/C(=C\c1cc(OCc2ccc3nc(C(F)(F)F)cc(OC)c3c2)ccc1OCC1CCN(C)CC1)C(=O)O | inactive | inactive | 14 nM | Not Active | Active | inactive | 380 nM | inactive | inactive |
